Test results taken from PubChem BioAssay (NCI).
Where “and” joins values, the source holds several entries; their conditions need not be identical. Equal values may be shown once.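 How tested: cells in 96-well plates exposed to compound for 48 hours at five concentrations. GI50 is the concentration that inhibits growth by half. TGI denotes the concentration required for complete inhibition of growth.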

Experiments:
Test in all cases: NCI anticancer screen, dose series, 48 h
[1] = system: A498 renal
[2] = system: ACHN renal
[3] = system: BT-549 breast
[4] = system: CAKI-1 renal
[5] = system: M14 melanoma
[6] = system: NCI/ADR-RES ovarian
[7] = system: SF-268 CNS
[8] = system: SR leukemia
[9] = system: TK-10 renal
[10] = system: U251 CNS

| Compound | GI50 [1] [µM] | TGI [1] | GI50 [2] [µM] | TGI [2] | GI50 [3] [µM] | TGI [3] | GI50 [4] [µM] | TGI [4] | GI50 [5] | TGI [5] | GI50 [6] [µM] | TGI [6] | GI50 [7] [µM] | TGI [7] | GI50 [8] [µM] | TGI [8] | GI50 [9] [µM] | TGI [9] | GI50 [10] [µM] | TGI [10] |
| --- | --- | --- | --- | --- | --- | --- | --- | --- | --- | --- | --- | --- | --- | --- | --- | --- | --- | --- | --- | --- |
| Cc1cc(C2=NNC(=O)Cc3cc4c(cc32)OCCO4)cc(C)c1N | 3.31 | 99.4 µM | 6.48 | > 100 µM | 3.36 | > 100 µM | 0.901 | 7.66 µM | 2.17 µM | > 100 µM | 0.882 | 25.8 µM | 4.21 | > 100 µM | 0.31 | > 100 µM | 8.96 | > 100 µM | 3.22 | > 100 µM |
| COc1ccc2nc3cc(Cl)ccc3c(N3CCN(c4ccnc(N5CCOCC5)n4)CC3)c2c1 | 27.8 | > 100 µM | 9.64 | > 100 µM | > 100 | > 100 µM | > 100 | > 100 µM | > 100 µM | > 100 µM | 50.8 | > 100 µM | 9.74 | > 100 µM | 3.29 | > 100 µM | 42.5 | > 100 µM | > 100 | > 100 µM |
| O=C(c1ccco1)c1nc2cc(F)ccc2[n+]([O-])c1C(F)(F)F | 86.6 | > 100 µM | 27.6 | > 100 µM | 22.2 | 51.6 µM | 15.8 | 30.8 µM | 17.6 µM | 38.7 µM | 21.5 | 66.5 µM | 39.2 | > 100 µM | 17.4 | 60.9 µM | 85.3 | > 100 µM | 35.5 | > 100 µM |
| CN(C)CCOc1ccc(/C(=C(/CCCl)c2ccccc2)c2ccccc2)cc1 | 0.885 | 3.12 µM | 1.8 | 6.55 µM and 31.9 µM | 0.976 | 1.8 µM | 0.979 | 3.73 µM and 29.7 µM | 0.96 µM |  | 1.6 | 4.95 µM and 30.7 µM | 1.51 | 17.4 µM and 33 µM | 1.18 | 3.13 µM and 10 µM | 0.991 |  | 0.815 |  |
| O=[N+]([O-])c1ccc2c(N3CCC(CCCC4CCN(c5ncnc6cc([N+](=O)[O-])ccc56)CC4)CC3)ncnc2c1 | 1.44 | > 100 µM | > 48 | > 100 µM | 6.33 | > 70.6 µM | 5.29 | > 100 µM | > 49 µM | > 100 µM | 0.658 | > 100 µM | > 53.3 | > 100 µM | 2.5 | > 100 µM | > 58.7 | > 100 µM | > 42.2 | > 100 µM |
| CCOC(=O)c1c2c(n(Cc3ccccc3)c1C)-c1ccccc1C(=O)C2=O | 24.6 | 60 µM | 12.9 | 30.2 µM | 15.7 | 29.7 µM | 17.2 | 36.6 µM | 11.9 µM | 24.5 µM | 9.42 | 27.4 µM | 19.5 | 47.2 µM | 3.39 | 19 µM | 16.3 | 34.6 µM | 8.75 | 20.8 µM |
| Cc1cnc(/C=N\NC(N)=S)c2cccc(N)c12 | 2.04 | > 100 µM | 1.51 | > 30.9 µM | 3.52 | > 100 µM | 2.51 | > 57 µM | 1.83 µM and 0.384 µM | 4.41 µM and 1.75 µM | 3.53 | > 100 µM and 17.8 µM | 1.51 | > 100 µM | 0.587 |  | 6.89 | > 100 µM | 2 | > 100 µM |
| C/C(=N\N=C(\[Se])N1CCN(c2ccccn2)CC1)c1ccccn1 |  | 18.1 µM | 0.00847 | 16.9 µM |  | 25 µM | 0.0408 | 21.3 µM | 0.0254 µM | 16.7 µM |  | 18.6 µM |  | 19.5 µM | 4.17 | 54.4 µM |  | 20.6 µM |  | 16.7 µM |
| CN(C)c1ccc(/C=C(\C#N)c2nc3ccccc3n2C)cc1 | 0.729 | 6.82 µM | 11.6 | > 100 µM | 3.4 | 31.2 µM | 5.16 | > 90.6 µM | 2.42 µM | > 64.9 µM | 1.47 | 11.1 µM | 5.96 | > 95.1 µM | 0.279 | > 100 µM | 3.24 | 67.9 µM | 3.72 | > 100 µM |
| O=C1c2ccccc2C(=Cc2ccccc2)c2ccccc21 | 2.3 | 9.52 µM | 3.89 | 13.4 µM | 3.71 | 15.6 µM | 1.54 | 5.49 µM | 2.21 µM | 7.86 µM | 1.6 | 6.62 µM | 3.34 | 16.6 µM | 0.871 | 18.3 µM | 3.03 | 10.1 µM | 2.97 | 9.23 µM |
| CC(=O)c1cc2c(cc1Nc1c3ccccc3nc3occ(Cl)c13)OCO2 | 0.105 | 0.373 µM | 0.46 | > 100 µM | 0.157 | > 100 µM | 0.085 | > 100 µM | 0.316 µM | 37.9 µM | 0.236 | 1.47 µM | 0.697 | > 100 µM | 0.12 | 1.06 µM | 0.409 | > 100 µM | 0.35 | > 100 µM |
| COc1ccc2c(c1)C(=O)C(=O)c1cc(O)c(OC)c(OC)c1-2 | 5.07 | 10.5 µM and 12.9 µM | 1.97 | 1.59 µM and 3.38 µM | 1.66 | 1.44 µM and 3.02 µM | 1.77 | 1.67 µM and 3.15 µM | 1.73 µM | 1.71 µM and 3.11 µM | 1.84 | 2.41 µM and 5.22 µM | 1.86 | 1.96 µM and 3.26 µM |  | 6.39 µM | 1.69 | 1.77 µM and 3.05 µM | 1.78 | 1.64 µM and 3.16 µM |
